# Measurements: patent US7465748B2, “Amide derivative” (Astellas Pharma Inc., priority 2003, dated 2008)
# Read-outs that look alike come from different tables or passages of the source.
# Key:
# [1] = tested on: VZV (strain CaQu); test: Anti-VZV activity assay (plaque reduction in HEF cells); assay type: cell-based, varicella zoster virus (VZV); details: human embryonic fibroblast (HEF) cells infected with VZV strain CaQu, plaque count after 3 to 4 days
# Experimental: This assay was carried out in accordance with the method described by Shigeta S. (The Journal of Infectious Diseases, 147, 3, 576-584 (1983). Specifically, human embryonic fibroblast (HEF) cells were inoculated in a 96-well microtiter plate, using a growth culture medium [Eagle MEM (Nissui) supplemented with 10% (v/v) fetal bovine serum (FBS; Sigma)], for culturing in 5% CO2 at 37° C. for 4 days until a monolayer was formed. After washing the cells with a maintenance medium, the cells were inoculated with 100 μl/well of VZV (strain CaQu) which had been diluted to 20 to 30 pfu/100 μl with the maintenance medium (Eagle MEM supplemented with 2% FBS). The plate was centrifuged at 2,000 rpm for 20 minutes at room temperature and then incubated at 37° C. for 3 hours in an atmosphere of 5% CO2 to infect with VZV. After washing three times with the maintenance medium, 100 μl of each test drug diluted to an appropriate concentration with the maintenance medium was added to each well. After culturing the cells at 37° C. for 3 to 4 days in an atmosphere of 5% CO2, the cells were fixed with 100 μl/well of 10% formalin/PBS for 2 to 3 hours. […] After discarding the fixing solution and culture supernatant and subsequently washing the plate with water, a staining solution (0.025% Crystal Violet) was added at 50 μl/well for staining for 2 to 3 minutes, and then, the plate was washed with water and dried at 37° C. Cellular death is induced in the HEF cells infected with VZV, so that plaques of the dead cells are formed in the monolayer of the HEF cells.
# [2] = tested on: HSV-1 (strain KOS); test: Anti-HSV-1 activity assay (MTT, MRC-5 cells); assay type: cell-based; details: HSV-1 strain KOS 50 TCID50/100 μl, 5 days culture, read-out: EC50 value (suppression of cellular death of MRC-5 cells via HSV-1 replication)
# Experimental: 10,000 MRC-5 cells were inoculated and cultured in a 96-well microtiter plate, using the growth culture medium [Eagle MEM (Nissui) supplemented with 10% FBS] in 5% CO2 at 37° C. for 4 to 5 days until a monolayer was formed. After the cells were washed with the maintenance culture medium [Eagle MEM supplemented with 2% (v/v) FBS], 100 μl of the maintenance culture medium dissolving therein an appropriate concentration of a test reagent was added to each well. Immediately after the test drug was added, an HSV-1 (strain KOS) solution was inoculated at 50 TCID50 (50% tissue culture infectious dose)/100 μl. After the cells were cultured in 5% CO2 at 37° C. for 5 days, 20 μl of MTT solution [3-(4,5-dimethyl-2-thiazolyl)-2,5-diphenyl-2H-tetrazolium bromide; Sigma] (diluted with PBS to 7.5 mg/ml) was added to each well, for another 24-hour incubation. After the culture medium was discarded, 100 μl of a solvent (prepared by adding 10% Triton X 100 (v/v) and 0.4% hydrochloric acid to isopropanol) was added to each well, to solubilize the generated formazan. The absorbance at 540 nm or 690 nm was measured with a microplate reader. Based on the suppression ratio (%) of the cellular death of the MRC-5 cell via HSV-1 replication, the EC50 value of the test drug was calculated.
# [3] = tested on: HSV-1 strain WT-51; test: Cutaneous HSV-1 infection mouse model; assay type: in vivo, HR-1 hairless mouse; details: 10 mg/kg twice a day for 5 days from 3 hours after infection, lesion score for 17 days
# Experimental: Using a cutaneous HSV-1 infection mouse model prepared in accordance with the method of H. Machida et al. (Antiviral Res., 1992, 17, 133-143), in vivo activity of the compounds of the invention was tested. The skin of each HR-1 hairless mouse [female, 7 weeks of age] was scratched lengthwise and breadthwise several times using a needle and a virus suspension (HSV-1 strain WT-51, 1.5×10^4 PFU/15 μl) was droped to the scarified region for infection, while anesthetized with diethyl ether
# Tested compounds were administered orally as a methyl cellulose suspension, except for compounds marked with asterisk which were dissolved in 20% Cremophor EL (Nakarai Tesuku)/20% polyethylene glycol (PEG) 400/60% H2O solution, starting at 3 hours after the infection, and then at a dose of 10 mg/kg twice a day for 5 days. The symptom of the skin lesion caused by HSV-1 infection were classified in the following scores for 17 days:
# Score 0: no signs of infection.
# Score 1: localized, barely perceptible small vesicles.
# Score 2: slight vesicle spread.
# Score 3: large patches of vesicles formed.
# Score 4: zosteriform vesicles.
# Score 5: large patches of ulcers formed.
# Score 6: zosteriform with severe large ulcers.
# Score 7: hind limb paralysis or death.
# The AUC value was calculated from each group's mean disease score, and the disease inhibitory rate of the group administered with each test compound to the placebo group was calculated using the AUC.
# [4] = Human alphaherpesvirus 3, read-out: EC50 value (concentration to inhibit 50% of the plaques)
# [5] = Human alphaherpesvirus 1, MRC5, 120 h
# [6] = asterisk: oral, dissolved in 20% Cremophor EL/20% PEG 400/60% H2O solution
# [7] = oral, methyl cellulose suspension
structure (smiles),measurement,setting,value
Cc1cccc(C)c1N(CC(=O)Nc1ccc(-c2ccccn2)cc1)C(=O)C1CCS(=O)(=O)CC1 [Example 125],EC50,[1]; [4],190 nM
same,EC50,[2]; [5],28 nM
same,Inhibitory activity (%) (disease inhibitory rate vs placebo from AUC of mean disease score),[3]; [6],*80%
"COc1ccc(N(CC(=O)Nc2ccc(-c3csc(N)n3)cc2)C(=O)C2CCS(=O)(=O)CC2)cc1 [Comparative Compound B, reference compound]",Inhibitory activity (%) (disease inhibitory rate vs placebo from AUC of mean disease score),[3]; [7],2%
Cc1cccc(C)c1N(CC(=O)Nc1ccc(-n2nccn2)cc1)C(=O)C1CCS(=O)(=O)CC1 [Example 98],EC50,[1]; [4],140 nM
same,EC50,[2]; [5],42 nM
same,Inhibitory activity (%) (disease inhibitory rate vs placebo from AUC of mean disease score),[3]; [6],*95%
"Cc1cc(N(CC(=O)Nc2ccc(-c3ncon3)cc2)C(=O)C2CCS(=O)(=O)CC2)ccc1Cl [Example 37, N-(4-chloro-3-methylphenyl)-N-(2-{[4-(1,2,4-oxadiazol-3-yl)phenyl]amino)-2-oxoethyl)tetrahydro-2H-thiopyran-4-carboxamide 1,1-dioxide]",Inhibitory activity (%) (disease inhibitory rate vs placebo from AUC of mean disease score),[3]; [7],100%
"Cc1ccc(N(CC(=O)Nc2ccc(-c3cocn3)cc2)C(=O)C2CCS(=O)(=O)CC2)cc1F [Example 14, N-(3-fluoro-4-methylphenyl)-N-(2-{[4-(1,3-oxazol-4-yl)phenyl]amino)-2-oxoethyl)tetrahydro-2H-thiopyran-4-carboxamide 1,1-dioxide]",Inhibitory activity (%) (disease inhibitory rate vs placebo from AUC of mean disease score),[3]; [7],98%
"Cc1ccc(N(CC(=O)Nc2ccc(-c3cocn3)cc2)C(=O)C2CCS(=O)(=O)CC2)c(C)c1 [Example 6, N-(2,4-dimethylphenyl)-N-(2-{[4-(1,3-oxazol-4-yl)phenyl]amino}-2-oxoethyl)tetrahydro-2H-thiopyran-4-carboxamide 1,1-dioxide]",Inhibitory activity (%) (disease inhibitory rate vs placebo from AUC of mean disease score),[3]; [7],92%
"Cc1cccc(C)c1N(CC(=O)Nc1ccc(-c2cocn2)cc1)C(=O)C1CCS(=O)(=O)CC1 [Example 1, N-(2,6-dimethylphenyl)-N-(2-([4-(1,3-oxazol-4-yl)phenyl]amino)-2-oxoethyl)tetrahydro-2H-thiopyran-4-carboxamide 1,1-dioxide]",Inhibitory activity (%) (disease inhibitory rate vs placebo from AUC of mean disease score),[3]; [6],*93%
"O=C(CN(C(=O)C1CCS(=O)(=O)CC1)c1ccc2c(c1)CCC2)Nc1ccc(-c2cocn2)cc1 [Example 11, N-(2,3-dihydro-1H-inden-5-yl)-N-(2-{[4-(1,3-oxazol-4-yl)phenyl]amino)-2-oxoethyl)tetrahydro-2H-thiopyran-4-carboxamide 1,1-dioxide]",EC50,[1]; [4],60 nM
same,EC50,[2]; [5],40 nM
"COc1ccc(N(CC(=O)Nc2ccc(-c3csc(N)n3)cc2)C(=O)C2CCC(O)CC2)cc1 (stereo not drawn) [Comparative Compound C, reference compound]",Inhibitory activity (%) (disease inhibitory rate vs placebo from AUC of mean disease score),[3]; [7],44%
"Nc1nc(-c2ccc(NC(=O)CN(C(=O)C3CCS(=O)(=O)CC3)c3ccc4c(c3)CCC4)cc2)cs1 [Comparative Compound D, reference compound]",Inhibitory activity (%) (disease inhibitory rate vs placebo from AUC of mean disease score),[3]; [7],43%
"Cc1cccc(C)c1N(CC(=O)Nc1ccc(-c2ncon2)cc1)C(=O)C1CCS(=O)(=O)CC1 [Example 27, N-(2,6-dimethylphenyl)-N-(2-([4-<(1,2,4-oxadiazol-3-yl)phenyl]amino}-2-oxoethyl)tetrahydro-2H-thiopyran-4-carboxamide 1,1-dioxide]",EC50,[1]; read-out: EC50 value (concentration to inhibit 50% of the plaques),100 nM
same,EC50,[2],60 nM
"Nc1nc(-c2ccc(NC(=O)CN(C(=O)c3ccc(F)cc3)c3ccc4ncsc4c3)cc2)cs1 [Comparative Compound A, reference compound]",Inhibitory activity (%) (disease inhibitory rate vs placebo from AUC of mean disease score),[3]; [7],38%
